From patent US20240318160A1 (Wisconsin Alumni Research Foundation, priority 2023, published 2024)

Assays:
Format in all cases: biochemical
[1] = system: Joinvillea ascendens JaPAL^F140H_MUT8 variant G121A; experiment: TAL and PAL enzyme kinetics; details: TAL assay (L-Tyr), pH 8.5, 30° C.
Experimental: (§1) To determine which of the 8 circle residues are essential in the conversion of PAL enzymes to PTAL enzymes (FIG. 3C), we mutated, one by one, each one of these 8 residues back to the PAL type in JaPAL^F140H_MUT8 and determined their effects on catalytic efficiency.
(§2) A mixture containing 100 mM Tris-HCl (pH 8.5), 1% glycerol, and purified enzyme in a total volume of 50 μl was preincubated for 3 min at 30° C. […] The reactions were terminated by addition of 6N acetic acid (10 μl).
(§3) The kinetic parameters of the recombinant enzymes were determined using HPLC. Reaction mixtures containing 100 mM Tris-HCl (pH 8.5), 1% glycerol, and purified enzyme (0.15 μg for PAL assay and 1 μg for TAL assay) in a 50 μl total volume were preincubated for 3 min at 30° C. […] After 10 min and 20 min incubations for PAL and TAL assay, respectively, at 30° C., the reaction was terminated by addition of 6N acetic acid (10 μl). […] The products were quantified using calibration curves generated using authentic standards. Non-linear hyperbolic regression analyses were conducted using the Excel Solver tool to calculate Km and Vmax values.

[2] = system: Joinvillea ascendens JaPAL^F140H_MUT8 variant V500I; experiment: TAL and PAL enzyme kinetics; details: TAL assay (L-Tyr), pH 8.5, 30° C.
Experimental: as §1, §2, §3

[3] = system: Joinvillea ascendens JaPAL^F140H_MUT8 variant T444P; experiment: TAL and PAL enzyme kinetics; details: TAL assay (L-Tyr), pH 8.5, 30° C.
Experimental: as §1, §2, §3

[4] = system: Joinvillea ascendens JaPAL^F140H_MUT8 variant A448S; experiment: TAL and PAL enzyme kinetics; details: TAL assay (L-Tyr), pH 8.5, 30° C.
Experimental: as §1, §2, §3

[5] = system: Joinvillea ascendens JaPAL^F140H_MUT8 variant I122S (in Table 3; I112S in text); experiment: TAL and PAL enzyme kinetics; details: TAL assay (L-Tyr), pH 8.5, 30° C.
Experimental: as §1, §2, §3

[6] = system: Joinvillea ascendens JaPAL^F140H_MUT8 variant L138I; experiment: TAL and PAL enzyme kinetics; details: TAL assay (L-Tyr), pH 8.5, 30° C.
Experimental: as §1, §2, §3

[7] = system: Joinvillea ascendens JaPAL^F140H_MUT8 variant S267A; experiment: TAL and PAL enzyme kinetics; details: TAL assay (L-Tyr), pH 8.5, 30° C.
Experimental: as §1, §2, §3

[8] = system: Joinvillea ascendens JaPAL^F140H_MUT8 variant I102V; experiment: TAL and PAL enzyme kinetics; details: TAL assay (L-Tyr), pH 8.5, 30° C.
Experimental: as §1, §2, §3

[9] = system: PTAL^H140F mutants (SbPTAL^H123F, BdPTAL^H123F, SaPTAL-a^H118F, SaPTAL-b^H126F, EmoPTAL^H127F, JaPTAL^H125F); experiment: TAL and PAL enzyme kinetics, group of enzymes; details: TAL activity, range over mutants
Description: To experimentally test the role of His 140 in the acquisition of TAL activity, we next conducted site-directed mutagenesis on the PAL and PTAL enzymes of grasses and non-grass graminids characterized above and analyzed their effects on TAL activity. For the PAL enzymes, the residue corresponding to Phe 140 was converted to His to generate JaPAL^F140H EmoPAL^F134H, BdPAL^F137H, and SbPAL^F135H. […] For the PTAL enzymes, the residue corresponding to His 140 was converted to Phe to generate SbPTAL^H123F, BdPTAL^H123F, SaPTAL-a^H118F, SaPTAL-b^H126F, EmoPTAL^H127F, and JaPTAL^H125F. […] Thus, unlike in the bacterial TAL enzyme (Watts et al., 2006), other residues besides the His 140 are likely important for the acquisition of strong TAL activity in the PTAL enzymes of grasses and closely-related non-grass graminids.
The kinetic parameters of the recombinant enzymes were determined using HPLC. Reaction mixtures containing 100 mM Tris-HCl (pH 8.5), 1% glycerol, and purified enzyme (0.15 μg for PAL assay and 1 μg for TAL assay) in a 50 μl total volume were preincubated for 3 min at 30° C. PAL and TAL reactions were started by addition of 50 μl substrate solution prepared with 0-4 mM L-Phe and 0-2 mM L-Tyr. After 10 min and 20 min incubations for PAL and TAL assay, respectively, at 30° C., the reaction was terminated by addition of 6N acetic acid (10 μl). […] The products were quantified using calibration curves generated using authentic standards. Non-linear hyperbolic regression analyses were conducted using the Excel Solver tool to calculate Km and Vmax values.

[10] = system: Joinvillea ascendens JaPTAL, wild type, SEQ ID NO: 27; experiment: TAL and PAL enzyme kinetics; details: TAL assay (L-Tyr), pH 8.5, 30° C.
Experimental: as §2, §3

[11] = system: Streptochaeta angustifolia SaPTAL-b variant H126F (SaPTAL-b^H126F); experiment: TAL and PAL enzyme kinetics; details: TAL assay (L-Tyr), pH 8.5, 30° C.
Experimental: as §2, §3

[12] = system: Ecdeiocolea monostachya EmoPAL variant F134H (EmoPAL^F134H); experiment: TAL and PAL enzyme kinetics; details: TAL assay (L-Tyr), pH 8.5, 30° C.
Experimental: as §2, §3

[13] = system: Ecdeiocolea monostachya EmoPTAL variant H127F (EmoPTAL^H127F); experiment: TAL and PAL enzyme kinetics; details: TAL assay (L-Tyr), pH 8.5, 30° C.
Experimental: as §2, §3

[14] = system: Sorghum bicolor SbPAL variant F135H (SbPAL^F135H); experiment: TAL and PAL enzyme kinetics; details: TAL assay (L-Tyr), pH 8.5, 30° C.
Experimental: as §2, §3

[15] = target: Arabidopsis thaliana AtPAL1 variant F144H (AtPAL1^F144H), SEQ ID NO: 261 (Arabidopsis thaliana, UniProt P35510, F144H); experiment: TAL and PAL enzyme kinetics; details: TAL assay (L-Tyr), pH 8.5, 30° C.
Chain of Arabidopsis thaliana AtPAL1 variant F144H (AtPAL1^F144H), SEQ ID NO: 261 (P35510 whole entry F144H): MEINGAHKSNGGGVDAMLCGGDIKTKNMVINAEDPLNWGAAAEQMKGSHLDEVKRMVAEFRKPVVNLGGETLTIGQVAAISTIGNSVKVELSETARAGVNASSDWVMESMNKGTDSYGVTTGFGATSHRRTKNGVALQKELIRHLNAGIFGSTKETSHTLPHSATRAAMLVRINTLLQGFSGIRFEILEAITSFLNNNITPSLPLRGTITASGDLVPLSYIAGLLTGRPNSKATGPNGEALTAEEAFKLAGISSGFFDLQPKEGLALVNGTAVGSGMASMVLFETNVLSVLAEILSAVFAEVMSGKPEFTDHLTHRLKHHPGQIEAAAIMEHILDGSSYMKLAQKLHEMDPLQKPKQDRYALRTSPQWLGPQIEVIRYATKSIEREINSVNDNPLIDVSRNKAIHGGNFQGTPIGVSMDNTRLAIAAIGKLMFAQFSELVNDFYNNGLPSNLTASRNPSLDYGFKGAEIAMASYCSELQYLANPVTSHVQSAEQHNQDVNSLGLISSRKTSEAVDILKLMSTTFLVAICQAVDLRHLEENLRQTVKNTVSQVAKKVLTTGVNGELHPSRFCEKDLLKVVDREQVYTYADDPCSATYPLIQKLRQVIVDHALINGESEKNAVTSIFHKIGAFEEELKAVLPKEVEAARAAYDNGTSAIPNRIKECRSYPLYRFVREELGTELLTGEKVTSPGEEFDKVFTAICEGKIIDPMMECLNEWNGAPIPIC
Experimental: as §2, §3

[16] = system: Streptochaeta angustifolia SaPTAL-a variant H118F (SaPTAL-a^H118F); experiment: TAL and PAL enzyme kinetics; details: TAL assay (L-Tyr), pH 8.5, 30° C.
Experimental: as §2, §3

[17] = system: wild-type PTAL enzymes (SbPTAL, BdPTAL, SaPTAL-a, SaPTAL-b, EmoPTAL, JaPTAL); experiment: TAL enzyme kinetics, group of enzymes; details: TAL activity (Tyr), range over PTAL enzymes; read-out: apparent Km
Experimental: as §3

[18] = system: PAL^F140H mutants (JaPAL^F140H, EmoPAL^F134H, BdPAL^F137H, SbPAL^F135H); experiment: TAL and PAL enzyme kinetics, group of enzymes; details: TAL activity, range over mutants
Experimental: as §3

[19] = system: Joinvillea ascendens JaPAL variant F140H/S112I (JaPAL^F140H_S112I), SEQ ID NO: 145; experiment: TAL and PAL enzyme kinetics; details: TAL assay (L-Tyr), pH 8.5, 30° C.
Experimental: To test this hypothesis further, the reciprocal S112I mutation was introduced into the JaPAL^F140H single mutant to generate the JaPAL^F140H_S112I double mutant. For comparison, a single mutant in which the residue corresponding to Ser112 was converted to Ile (i.e., JaPAL^S112I) was generated as well.
as §2, §3

Structure (SMILES): N[C@@H](Cc1ccc(O)cc1)C(=O)O [L-Tyr, tyrosine]
- Km [1]: 12.6 ± 0.6 µM
- Km [2]: 25.1 ± 3.2 µM
- Km [3]: 25.3 ± 2.4 µM
- Km [4]: 23.3 ± 1 µM
- Km [5]: 282 ± 29 µM
- Km [6]: 18.3 ± 0.6 µM
- Km [7]: 43.1 ± 1.5 µM
- Km [8]: 24.5 ± 1.4 µM
- Km [9]: 531 to 765 µM
- Km [10]: 11 ± 0.4 µM
- Km [11]: 724 ± 54.8 µM
- Km [12]: 450 ± 14.2 µM
- Km [13]: 614 ± 18.1 µM
- Km [14]: 413 ± 6.5 µM
- kcat [15]: 0.01 ± 0.00 s⁻¹
- Km [16]: 531 ± 13.2 µM
- Km [17]: 11 to 19 µM
- Km [18]: 222 to 450 µM
- Km [19]: 17.2 ± 0.7 µM
